According to publication PMC9828517 (Angewandte Chemie (International Ed. in English), 2022):

target: T1, recombinant SIRT5 (His-tagged, Millipore) (Homo sapiens, UniProt Q9NXA8); experiment: Mass spectrometry determination of covalent labeling; type: binding; conditions: Tris buffer pH 8, 24 h room temperature (7, 8: 37 °C, 48 h)
T1 sequence (Q9NXA8 37-310): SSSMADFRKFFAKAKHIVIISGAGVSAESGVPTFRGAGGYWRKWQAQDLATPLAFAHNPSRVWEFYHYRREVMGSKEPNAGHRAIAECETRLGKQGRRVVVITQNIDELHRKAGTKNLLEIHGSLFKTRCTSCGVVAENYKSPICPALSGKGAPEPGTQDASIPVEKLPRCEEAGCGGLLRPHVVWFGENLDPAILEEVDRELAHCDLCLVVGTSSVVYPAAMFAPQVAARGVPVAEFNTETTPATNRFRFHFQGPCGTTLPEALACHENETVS

Row | SMILES | covalent conjugate formation with SIRT5 (MALDI-TOF MS)
1 | O=C(NCCCC[C@H](NS(=O)(=O)c1cccc(F)c1)C(=O)N[C@@H](Cc1c[nH]c2ccccc12)C(=O)NC1CCC1)c1cccc(S(=O)(=O)F)c1 [compound 2] | reacted more readily with SIRT5
2 | O=C(NC1CCC1)[C@H](Cc1c[nH]c2ccccc12)NC(=O)[C@H](CCCCNC(=S)Nc1cccc(OS(=O)(=O)F)c1)NS(=O)(=O)c1cccc(F)c1 [compound 7] | not significantly enhanced compared to the amide analogs
3 | O=C(NC1CCC1)[C@H](Cc1c[nH]c2ccccc12)NC(=O)[C@H](CCCCNC(=S)Nc1ccc(OS(=O)(=O)F)cc1)NS(=O)(=O)c1cccc(F)c1 [compound 8] | not significantly enhanced compared to the amide analogs
